Source: patent publication US6900245B2, “Pharmaceutical composition comprising crystalline sibutramine methanesulfonate hemihydrate” (priority 2002, dated 2005)
Counter-ions that a name gives are not always drawn. Like-named read-outs stand apart in the source and are kept apart here.

Experiments:
[1] = Exposure of anhydrous enantiomer salts to room temperature, 75% relative humidity; type: physicochemical
Text: Further, anhydrous (+)- and (−)-sibutramine methanesulfonate were each placed for 1 day at room temperature under 75% relative humidity.

[2] = background statement on the prior art; cited from earlier work
[3] = Stability on long term storage at 60° C. (residual rate); type: physicochemical
Protocol: The thermal stability of crystalline methanesulfonate hemihydrate of formula (I) during a long term storage was compared with that of the sibutramine hydrochloride monohydrate of formula (IV). The amounts of unchanged crystalline methanesulfonate hemihydrate of formula (I) and sibutramine hydrochloride monohydrate of formula (IV) at 60° C. after 1, 2, 3 and 6 months are shown in Table 3.

[4] = Non-hygroscopic test: water content by Karl Fischer after storage at 40° C., 75% or 10% relative humidity; type: physicochemical; conditions: for water-content: 40° C.
Protocol: Crystalline sibutramine methanesulfonate hemihydrate of formula (I), sibutramine hydrochloride monohydrate (IV) and anhydrous sibutramine methanesulfonate were each exposed to a high temperature/humidity condition of 40° C. and 75% relative humidity for 1, 2, and 5 days, and the water content thereof was measured by employing Kaal-Fisher moisture analyzer.
A similar series of experiments were conducted at 40° C. and 10% relative humidity, in order to examine whether the respective compounds are stable under a relatively dry condition.

[5] = pH 5.2; Merck Index, 13th Ed, p1522; cited from earlier work
[6] = Solubility in water at pH 5.2 (saturation, HPLC); type: physicochemical; conditions: for solubility: pH 5.2, thermodynamic from solid, pH5.2, saturation, HPLC, based on water-free sibutramine
Text: Sibutramine methanesulfonate hemihydrate of formula (I) and sibutramine hydrochloride monohydrate were each dissolved to the saturation point at pH 5.2, and then subjected to high performance liquid chromatography (HPLC) to determine the dissolved amount (based on water-free of sibutramine).

[7] = system: overweight Zuker rats (fa/fa); test: Weight loss effect, 21 days, high-fat food; type: in vivo, rat; conditions: 3 mg/kg everyday for 21 days
Protocol: (§1) 16 each of overweight Zuker rats (fa/fa) and thin Zuker rats (Fa/Fa) were divided into drug-administrating and control groups (8 rats per group), and the weight of each rat was measured prior to the test. A 3 mg/kg dose of crystalline sibutramine methanesulfonate hemihydrate was administrated to each rat of the drug-administrating groups, whiling the vehicle was administrated to those of the control groups, everyday for 21 days. During the period, rats were allowed free access to high-fat food, and the average weights of the drug-administrating and control groups were determined in order to calculate the weight gain and loss.

thin Zuker rats (Fa/Fa) = test: Weight loss effect, 21 days, high-fat food; type: in vivo, rat; conditions: 3 mg/kg everyday for 21 days
Protocol: as §1

[8] = 10% relative humidity, storage 1 day
[9] = 10% relative humidity, storage 2 days
[10] = 10% relative humidity, storage 5 days
[11] = 75% relative humidity, storage 1 day
[12] = 75% relative humidity, storage 2 days
[13] = 75% relative humidity, storage 5 days

Row | Structure (SMILES) | state after 1 day [1] | hygroscopicity [2] | Residual rate after 1 month [3] | Residual rate after 2 months [3] | Residual rate after 3 months [3] | Residual rate after 6 months [3] | Initial (unchanged amount) [3] | water-content [4, 8] | water-content [4, 9] | water-content [4, 10] | water-content [4, 11] | water-content [4, 12] | water-content [4, 13] | solubility [6] | further results
1 | CC(C)CC(N(C)C)C1(c2ccc(Cl)cc2)CCC1.CS(=O)(=O)O (single isomer, unassigned; (-)) [(−)-sibutramine methanesulfonate] | transparent liquid |  |  |  |  |  |  |  |  |  |  |  |  |  | 
2 | CC(C)CC(N(C)C)C1(c2ccc(Cl)cc2)CCC1.Cl (stereo not shown) [anhydrous sibutramine hydrochloride] |  | highly hygroscopic |  |  |  |  |  |  |  |  |  |  |  |  | 
3 | CC(C)CC(N(C)C)C1(c2ccc(Cl)cc2)CCC1.CS(=O)(=O)O (single isomer, unassigned; (+)) [(+)-sibutramine methanesulfonate] | transparent liquid |  |  |  |  |  |  |  |  |  |  |  |  |  | 
4 | CC(C)CC(N(C)C)C1(c2ccc(Cl)cc2)CCC1 (stereo not shown) [sibutramine hydrochloride monohydrate, reference compound] |  | non-hygroscopic | 1.000 | 0.999 | 0.999 | 0.992 | 1.000 | 5.40 % by weight | 5.36 % by weight | 5.36 % by weight | 5.40 % by weight | 5.45 % by weight | 5.48 % by weight | 2.8 mg/mL | solubility in water [5]: 2.9 mg/mL
5 | CC(C)CC(N(C)C)C1(c2ccc(Cl)cc2)CCC1.CS(=O)(=O)O (stereo not shown) [anhydrous sibutramine methanesulfonate] |  |  |  |  |  |  |  | 0.60 % by weight | 0.71 % by weight | 0.70 % by weight | 0.60 % by weight | 2.20 % by weight | 2.25 % by weight |  | 
6 | CC(C)CC(N(C)C)C1(c2ccc(Cl)cc2)CCC1 (racemic) [sibutramine methanesulfonate hemihydrate] |  |  | 1.001 | 0.999 | 0.999 | 1.000 | 1.000 | 2.27 % by weight | 2.25 % by weight | 2.26 % by weight | 2.27 % by weight | 2.30 % by weight | 2.30 % by weight | 2500 mg/mL | stability compared with sibutramine hydrochloride monohydrate ([3]; up to 6 months): as stable as sibutramine hydrochloride monohydrate; release of the water of crystallization ([4]; dry condition (40° C., 10% RH)): does not release the water of crystallization; hygroscopicity ([4]; high humidity condition (40° C., 75% RH)): non-hygroscopic; solubility in water compared with sibutramine hydrochloride monohydrate of formula (IV) ([6]; pH 5.2): markedly higher solubility in water; weight loss effect as compared with the control group ([7]; Zuker rats, sentence covers overweight and thin rats): remarkable weight loss effect; The average weight after test (B) ([7]; overweight Zuker rats): 455.6 g; Weight gain (B − A) ([7]; overweight Zuker rats): 123.4 g; Weight loss effect ((Gain in weight of the control group) − (Gain in weight of the drug-administrating group)) ([7]; overweight Zuker rats): 29.6 g; The average weight after test (B) (thin Zuker rats (Fa/Fa)): 303.4 g; Weight gain (B − A) (thin Zuker rats (Fa/Fa)): 58.4 g; Weight loss effect ((Gain in weight of the control group) − (Gain in weight of the drug-administrating group)) (thin Zuker rats (Fa/Fa)): 20.4 g
